Measurements: patent publication US20040053966A1, “Chemical derivatives and their application as antitelomerase agent” (Aventis Pharms S.A., priority 1999, published 2004)

Key:
[1] = system: G-quadruplex of oligonucleotide GGGTTAGGGTTAGGGTTAGGG (3.5 repeats of the human telomeric motif); assay: G-quadruplex stabilizing activity, fluorescence Tm (FAM+DABCYL oligonucleotide); assay type: binding; conditions: test product 1 μM, oligonucleotide 0.2 μM, 0.1 M LiCl, 10 mM cacodylate pH 7.6; reference without product 44° C.
Excerpt: The G-quadruplex stabilizing activity may be determined by a method using the formation of a complex with fluorescein of which the experimental protocol is described below. Oligonucleotides […] The oligonucleotide FAM+DABCYL carries the catalogue reference OL-0371-0802. It has the sequence: […] The fluorescein is attached to the 5' end, the DABCYL to the 3' end, by the chemical arms described by Eurogentec. The concentration of the samples is checked by spectrophotometry, recording the absorbance spectrum between 220 and 700 nm and using the molar extinction coefficient provided by the supplier. Buffers All the experiments were carried out in a 10 mM sodium cacodylate buffer pH 7.6 containing 0.1 M lithium chloride (or sodium chloride). The absence of fluorescent contamination in the buffer was checked beforehand. The fluorescent oligonucleotide is added at the final concentration of 0.2 μM. Study of Fluorescence All the measurements of fluorescence were carried out on a Spex Fluorolog DMlB apparatus, using an excitation line width of 1.8 nm and an emission line width of 4.5 nm. The samples are placed in a microquartz cuvette of 0.2×1 cm. The temperature of the sample is controlled by an external water bath. The oligonucleotide alone was analysed at 20, 30, 40, 50, 60, 70 and 80° C. The emission spectra are recorded using an excitation wavelength of 470 nm. The excitation spectra are recorded using either 515 nm or 588 nm as emission wavelength. The spectra are corrected for the response of the instrument by reference curves. A high extinction (80-90%) of the fluorescence of fluorescein at room temperature is observed, in agreement with an intramolecular folding of the oligonucleotide at 20° C. in the form of a G-quadruplex, which induces juxtaposition of its [NT] ends which are respectively linked to fluorescein and to DABCYL. This juxtaposition causes an already-described phenomenon of extinction of fluorescence which is used for “molecular beacons”. Fluorescence Tm: […] The samples are then allowed to incubate for at least 1 hour at 20° C. before each measurement. The use of longer incubation times (up to 24 hours) has no influence on the result obtained. Each experiment allows the measurement of only one sample. The latter is first incubated at an initial temperature of 20° C., heated to 80° C. over 38 minutes, left for 5 minutes at 80° C. and then cooled to 20° C. over 62 minutes. During this time, the fluorescence is measured simultaneously at two emission wavelengths (515 nm and 588 nm) using 470 nm as excitation wavelength. A measurement is carried out every 30 seconds. The temperature of the water bath is recorded in parallel, and the fluorescence profile as a function of the temperature is reconstituted from these values. The fluorescence profiles are then normalized between 20° C. and 80° C., and the temperature for which the intensity of emission at 515 nm is the mean of those at high and low temperature is called Tm. Under these conditions, the Tm of the reference sample without addition of product is 44° C. in a lithium chloride buffer. This temperature is increased to more than 55° C. in a sodium chloride buffer. The addition of a G-quadruplex-stabilizing compound induces an increase in the Tm. This increase is judged to be significant if it is greater than […].

[2] = system: human telomerase (HL60 cell extract); assay: Antitelomerase activity, TRAP (extension of oligonucleotide TS and PCR amplification); assay type: biochemical; conditions: telomerase extract from HL60 cells
[3] = system: A549 cells; assay: Cytotoxic activity on human tumour line A549 (neutral red); assay type: cell-based; conditions: Homo sapiens, A549, 96 h, 96 hours incubation, read-out: Cytotox. A549 IC50
Procedure: The Cytotoxic Biological Activity on Human Tumour Lines is Determined According to the Following Experimental Protocol:
The cells at the exponential growth phase are trypsinized, washed in 1× PBS and are inoculated in 96-well microplates (Costar) in an amount of 4×10^4 cells/ml for A549 and of 1.5×10^4 cells/ml (0.2 ml/well) and then incubated for 96 hours in the presence of variable concentrations of product to be studied (10, 1, 0.1 and 0.01 μg/ml, each point in quadruplicate). 16 hours before the end of the incubation, 0.02% final of neutral red is added to each well. At the end of the incubation, the cells are washed with 1× PBS and lysed with 1% sodium lauryl sulphate. The cellular incorporation of the dye, which reflects cellular growth, is evaluated by spectrophotometry at a wavelength of 540 nm for each sample with the aid of a Dynatech MR5000 reading apparatus.
(compound value−blank value/cell control value−blank value)×100.

| SMILES | G4 Tm [1] | IC50 [2] | IC50 [3] |
| --- | --- | --- | --- |
| CCn1c2ccccc2c2cc(Nc3nc(Nc4ccc5nc(C)cc(N)c5c4)nc(SC)n3)ccc21 [Example 18-11] | 48 °C | 3.3 µM | 1.3 µM |
| CCN(CC)c1nc(Nc2ccc3ncccc3c2)nc(Nc2ccc3nc(C)cc(N)c3c2)n1 [Example 19-1] | 58 °C | 1 µM | 1.5 µM |
